Laboratory results as given in patent US20230127944A1, “BROAD-SPECTRUM CARBAPENEMS” (priority 2019, published 2023).
Converted amounts (≈) assume the structure as drawn.

How the values were obtained:
Type in all cases: cell-based
[1] = system: P. aeruginosa Paeβ-17; assay: broth microdilution MIC assay, P. aeruginosa Paeβ-17; conditions: Pseudomonas aeruginosa, read-out: MIC, P. aeruginosa Paeβ-17
Procedure: (§1) To determine the ability of test compounds to inhibit the growth of bacterial strains, classic cell-based broth microdilution MIC assays were employed. MIC assays are performed according to CLSI methods except where otherwise noted (CLSI, 2011 and CLSI, 2009). The reference strains S. aureus ATCC 29213 (methicillin sensitive), S. aureus ATCC 33591 (methicillin-resistant), E. coli ATCC 25922 (wild-type/QC strain), P. aeruginosa ATCC 27853 (wild-type/QC strain), and the clinical isolate P. aeruginosa PA 8 were used to determine the ability of the exemplary carbapenem compounds to inhibit bacterial growth. An expanded panel of methicillin resistance S. aureus (MRSA) and Pseudomonas was also used to determine the ability of exemplary carbapenem compounds to inhibit bacterial growth across a broader representation of those species. To determine activity in MRSA and in addition to S. aureus ATCC 33591, S. aureus USA 300 and USA 600, some of the most common clones found to cause human infection, were also used. To further gauge the impact on the carbapenem compounds due to various resistance mechanisms in Pseudomonas, the following strains were included: P. aeruginosa 35151 (hyper-permeable strain), P. aeruginosa ΔmexAB-OprM (an efflux pump knockout), and P. aeruginosa Paβ-173 (a clinical isolate of reduced carbapenem susceptibility). Briefly, cryo-preserved bacterial cultures of clinical strains are streaked for isolation on appropriate agar medium, in this case Mueller Hinton II agar. Following incubation to allow formation of colonies, these plates are sealed with parafilm and stored refrigerated for up to two weeks. For preparation of assay inocula and to ensure low variability, at least 5 colonies are picked from the agar plates with an inoculating loop and aseptically transferred to a culture tube containing 3 mL of Mueller-Hinton Broth (supplemented with divalent cations to required levels based on Manufacturers' specification). The broth culture is grown for 3-5 hours at 37° C. with shaking at 200 rpm. Meanwhile, 2-fold serial dilutions of test compounds are conducted in a 96 well plate with a final volume of 75 μL per well at 2-fold the final desired concentration. After the dilution plates are set up the growing cultures are then diluted in a cuvette containing MH II broth and the optical density is measured at 600 nm. Inocula are diluted such that 75 μL of this culture in Mueller-Hinton Broth results in a starting bacterial concentration of 5×10^5 CFU/mL when added to the dilution plates. The plates are incubated 16-20 hours at 37° C. The MIC is read visually as the lowest concentration well with no bacterial growth.

[2] = system: S. aureus USA 300; assay: broth microdilution MIC assay, S. aureus USA300; conditions: Staphylococcus aureus; S. aureus USA300 (MRSA); read-out: MIC, S. aureus USA300
Procedure: as §1

[3] = system: S. aureus ATCC 33591 (methicillin-resistant); assay: broth microdilution MIC assay, S. aureus 33591; conditions: Staphylococcus aureus, ATCC33591; S. aureus 33591, methicillin-resistant; read-out: MIC, S. aureus 33591
Procedure: as §1

[4] = system: S. aureus USA 600; assay: broth microdilution MIC assay, S. aureus USA600; conditions: Staphylococcus aureus; S. aureus USA600 (MRSA); read-out: MIC, S. aureus USA600
Procedure: as §1

[5] = system: P. aeruginosa 35151 (hyper-permeable strain); assay: broth microdilution MIC assay, P. aeruginosa 35151; conditions: Pseudomonas aeruginosa, read-out: MIC, P. aeruginosa 35151
Procedure: as §1

[6] = system: P. aeruginosa ATCC 27853 (wild-type/QC strain); assay: broth microdilution MIC assay, P. aeruginosa 27853; conditions: Pseudomonas aeruginosa, ATCC27853; read-out: MIC, P. aeruginosa 27853
Procedure: as §1

[7] = system: E. coli ATCC 25922 (wild-type/QC strain); assay: broth microdilution MIC assay, E. coli 25922; conditions: Escherichia coli, ATCC25922; read-out: MIC, E. coli 25922
Procedure: as §1

[8] = system: P. aeruginosa ΔmexAB-OprM (an efflux pump knockout); assay: broth microdilution MIC assay, P. aeruginosa ΔmexAB-OprM; conditions: Pseudomonas aeruginosa, read-out: MIC, P. aeruginosa ΔmexAB-OprM
Procedure: as §1

SMILES	MIC [1]	MIC [2]	MIC [3]	MIC [4]	MIC [5]	MIC [6]	MIC [7]	MIC [8]
C[C@@H](O)[C@H]1C(=O)N2C(C(=O)O)=C(SC3CN([C@H]4C[C@@H](CN)C4)C3)[C@H](C)[C@H]12 [Example 1, (4R,5S,6S)-3-((1-((1s,3S)-3-(aminomethyl)cyclobutyl)azetidin-3-yl)thio)-6-((R)-1-hydroxyethyl)-4-methyl-7-oxo-1-azabicyclo[3.2.0]hept-2-ene-2-carboxylic acid]	> 32 µg/mL	1 to 4 µg/mL (≈ 2.62 to 10.5 µM)	8 to 32 µg/mL (≈ 21 to 83.9 µM)	1 to 4 µg/mL (≈ 2.62 to 10.5 µM)	< 1 µg/mL	8 to 32 µg/mL (≈ 21 to 83.9 µM)	< 1 µg/mL	1 to 4 µg/mL (≈ 2.62 to 10.5 µM)
C[C@@H](O)[C@H]1C(=O)N2C(C(=O)O)=C(SC3CN([C@H]4C[C@H](CN)C4)C3)[C@H](C)[C@H]12 [Example 2, (4R,5S,6S)-3-((1-((1r,3R)-3-(aminomethyl)cyclobutyl)azetidin-3-yl)thio)-6-((R)-1-hydroxyethyl)-4-methyl-7-oxo-1-azabicyclo[3.2.0]hept-2-ene-2-carboxylic acid]	> 32 µg/mL	1 to 4 µg/mL (≈ 2.62 to 10.5 µM)	8 to 32 µg/mL (≈ 21 to 83.9 µM)	1 to 4 µg/mL (≈ 2.62 to 10.5 µM)	< 1 µg/mL	8 to 32 µg/mL (≈ 21 to 83.9 µM)	< 1 µg/mL	1 to 4 µg/mL (≈ 2.62 to 10.5 µM)
C[C@@H](O)[C@H]1C(=O)N2C(C(=O)O)=C(SC3CN([C@H]4C[C@@H](N)C4)C3)[C@H](C)[C@H]12 [Example 3, (4R,5S,6S)-3-((1-((1s,3S)-3-aminocyclobutyl)azetidin-3-yl)thio)-6-((R)-1-hydroxyethyl)-4-methyl-7-oxo-1-azabicyclo[3.2.0]hept-2-ene-2-carboxylic acid]	> 32 µg/mL	1 to 4 µg/mL (≈ 2.72 to 10.9 µM)	8 to 32 µg/mL (≈ 21.8 to 87.1 µM)	1 to 4 µg/mL (≈ 2.72 to 10.9 µM)	< 1 µg/mL	8 to 32 µg/mL (≈ 21.8 to 87.1 µM)	< 1 µg/mL	1 to 4 µg/mL (≈ 2.72 to 10.9 µM)
C[C@@H](O)[C@H]1C(=O)N2C(C(=O)O)=C(SC3CN([C@H]4C[C@H](N)C4)C3)[C@H](C)[C@H]12 [Example 4, (4R,5S,6S)-3-((1-((1r,3R)-3-aminocyclobutyl)azetidin-3-yl)thio)-6-((R)-1-hydroxyethyl)-4-methyl-7-oxo-1-azabicyclo[3.2.0]hept-2-ene-2-carboxylic acid]	> 32 µg/mL	1 to 4 µg/mL (≈ 2.72 to 10.9 µM)	8 to 32 µg/mL (≈ 21.8 to 87.1 µM)	1 to 4 µg/mL (≈ 2.72 to 10.9 µM)	< 1 µg/mL	8 to 32 µg/mL (≈ 21.8 to 87.1 µM)	< 1 µg/mL	1 to 4 µg/mL (≈ 2.72 to 10.9 µM)
C[C@@H](O)[C@H]1C(=O)N2C(C(=O)O)=C(SC3CN([C@H]4CC[C@H](N)C4)C3)[C@H](C)[C@H]12 [Example 5, (4R,5S,6S)-3-((1-((1S,3S)-3-aminocyclopentyl)azetidin-3-yl)thio)-6-((R)-1-hydroxyethyl)-4-methyl-7-oxo-1-azabicyclo[3.2.0]hept-2-ene-2-carboxylic acid]	8 to 32 µg/mL (≈ 21 to 83.9 µM)	1 to 4 µg/mL (≈ 2.62 to 10.5 µM)	1 to 4 µg/mL (≈ 2.62 to 10.5 µM)	1 to 4 µg/mL (≈ 2.62 to 10.5 µM)	< 1 µg/mL	1 to 4 µg/mL (≈ 2.62 to 10.5 µM)	< 1 µg/mL	1 to 4 µg/mL (≈ 2.62 to 10.5 µM)
C[C@@H](O)[C@H]1C(=O)N2C(C(=O)O)=C(SC3CN([C@@H]4CC[C@H](N)C4)C3)[C@H](C)[C@H]12 [Example 6, (4R,5S,6S)-3-((1-((1R,3S)-3-aminocyclopentyl)azetidin-3-yl)thio)-6-((R)-1-hydroxyethyl)-4-methyl-7-oxo-1-azabicyclo[3.2.0]hept-2-ene-2-carboxylic acid]	8 to 32 µg/mL (≈ 21 to 83.9 µM)	1 to 4 µg/mL (≈ 2.62 to 10.5 µM)	1 to 4 µg/mL (≈ 2.62 to 10.5 µM)	1 to 4 µg/mL (≈ 2.62 to 10.5 µM)	< 1 µg/mL	1 to 4 µg/mL (≈ 2.62 to 10.5 µM)	< 1 µg/mL	1 to 4 µg/mL (≈ 2.62 to 10.5 µM)
